Data as given in BindingDB's records for doi:10.1111/cbdd.12663 (West China Hospital, 2016).

What was measured:
Experiment in all cases: DPP-IV Inhibition Screening Assay
[1] = molecular target: Dipeptidyl peptidase 4 [K6R,T557I] (Homo sapiens, UniProt P27487, K6R/T557I)
Experimental: (§1) DPP-IV inhibition was measured by DPP-IV inhibitor screening assay kit (Cayman Chemical Company, Item No. 700210) following the manufacturer's instructions. Briefly, solutions of test compounds at varying concentrations were prepared in dimethyl sulfoxide (DMSO) and then diluted into assay buffer. Human recombinant DPP-IV was added to the dilutions and preincubated for 30 min at 37 °C before the reaction was initiated by the addition of fluorogenic substrate solution AMC (Gly-Pro-Aminomethylcoumarin). Human recombinant DPP-8 or DPP-9 was added to the dilutions and preincubated for 10 min at 22 °C before the reaction was initiated by the addition of fluorogenic DPP substrate. The kinetics of the reaction wasmonitored (excitation at 380 nm, emission at 460 nm).

Dipeptidyl peptidase 8 = Dipeptidyl peptidase 8 (Homo sapiens, UniProt Q6V1X1)
Experimental: as §1

Dipeptidyl peptidase 9 = Dipeptidyl peptidase 9 (Homo sapiens, UniProt Q86TI2)
Experimental: as §1

Dipeptidyl peptidase 8, sequence (Q6V1X1 whole entry): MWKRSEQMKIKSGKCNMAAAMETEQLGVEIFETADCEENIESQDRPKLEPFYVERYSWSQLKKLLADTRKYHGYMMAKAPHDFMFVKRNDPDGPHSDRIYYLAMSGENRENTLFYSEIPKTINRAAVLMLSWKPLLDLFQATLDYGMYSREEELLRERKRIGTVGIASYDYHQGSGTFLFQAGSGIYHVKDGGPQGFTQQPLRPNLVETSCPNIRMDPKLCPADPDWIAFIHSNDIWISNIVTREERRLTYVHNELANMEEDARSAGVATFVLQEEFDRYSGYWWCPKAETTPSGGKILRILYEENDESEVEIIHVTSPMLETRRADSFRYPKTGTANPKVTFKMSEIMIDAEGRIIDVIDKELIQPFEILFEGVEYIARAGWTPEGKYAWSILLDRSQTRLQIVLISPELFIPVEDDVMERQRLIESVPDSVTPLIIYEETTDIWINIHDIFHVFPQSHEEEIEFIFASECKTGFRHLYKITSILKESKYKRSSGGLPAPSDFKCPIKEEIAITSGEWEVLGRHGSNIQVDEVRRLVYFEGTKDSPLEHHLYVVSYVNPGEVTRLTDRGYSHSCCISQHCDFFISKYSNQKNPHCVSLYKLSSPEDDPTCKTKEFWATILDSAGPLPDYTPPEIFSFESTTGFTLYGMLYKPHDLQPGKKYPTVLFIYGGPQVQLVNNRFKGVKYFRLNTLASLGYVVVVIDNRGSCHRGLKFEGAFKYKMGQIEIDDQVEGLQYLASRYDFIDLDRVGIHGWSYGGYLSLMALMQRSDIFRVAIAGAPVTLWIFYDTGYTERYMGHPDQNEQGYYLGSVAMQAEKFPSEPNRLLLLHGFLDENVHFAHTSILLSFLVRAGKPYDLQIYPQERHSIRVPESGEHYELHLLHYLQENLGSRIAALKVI
Dipeptidyl peptidase 4 [K6R,T557I], sequence (P27487 whole entry K6R/T557I/D663E): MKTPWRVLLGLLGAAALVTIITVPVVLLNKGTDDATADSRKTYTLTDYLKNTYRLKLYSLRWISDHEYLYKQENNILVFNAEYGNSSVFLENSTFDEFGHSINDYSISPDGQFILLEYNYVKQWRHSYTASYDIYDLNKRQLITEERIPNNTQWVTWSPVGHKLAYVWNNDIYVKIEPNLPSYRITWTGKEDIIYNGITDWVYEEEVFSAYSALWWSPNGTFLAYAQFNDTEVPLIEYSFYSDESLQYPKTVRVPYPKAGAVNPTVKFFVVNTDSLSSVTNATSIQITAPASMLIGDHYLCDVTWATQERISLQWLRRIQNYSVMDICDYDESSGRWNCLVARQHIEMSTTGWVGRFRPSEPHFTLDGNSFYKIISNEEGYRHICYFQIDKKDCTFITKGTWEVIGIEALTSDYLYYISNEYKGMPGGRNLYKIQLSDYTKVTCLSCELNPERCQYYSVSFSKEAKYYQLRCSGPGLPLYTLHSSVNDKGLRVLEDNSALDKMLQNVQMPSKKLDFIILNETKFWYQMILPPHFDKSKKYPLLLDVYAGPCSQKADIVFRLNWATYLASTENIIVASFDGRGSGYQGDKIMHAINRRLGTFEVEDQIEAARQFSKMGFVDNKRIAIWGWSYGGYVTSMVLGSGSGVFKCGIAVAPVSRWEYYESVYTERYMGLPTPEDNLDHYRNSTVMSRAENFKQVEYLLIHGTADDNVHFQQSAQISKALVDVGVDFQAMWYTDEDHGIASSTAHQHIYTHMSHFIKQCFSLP
Dipeptidyl peptidase 9, sequence (Q86TI2 whole entry): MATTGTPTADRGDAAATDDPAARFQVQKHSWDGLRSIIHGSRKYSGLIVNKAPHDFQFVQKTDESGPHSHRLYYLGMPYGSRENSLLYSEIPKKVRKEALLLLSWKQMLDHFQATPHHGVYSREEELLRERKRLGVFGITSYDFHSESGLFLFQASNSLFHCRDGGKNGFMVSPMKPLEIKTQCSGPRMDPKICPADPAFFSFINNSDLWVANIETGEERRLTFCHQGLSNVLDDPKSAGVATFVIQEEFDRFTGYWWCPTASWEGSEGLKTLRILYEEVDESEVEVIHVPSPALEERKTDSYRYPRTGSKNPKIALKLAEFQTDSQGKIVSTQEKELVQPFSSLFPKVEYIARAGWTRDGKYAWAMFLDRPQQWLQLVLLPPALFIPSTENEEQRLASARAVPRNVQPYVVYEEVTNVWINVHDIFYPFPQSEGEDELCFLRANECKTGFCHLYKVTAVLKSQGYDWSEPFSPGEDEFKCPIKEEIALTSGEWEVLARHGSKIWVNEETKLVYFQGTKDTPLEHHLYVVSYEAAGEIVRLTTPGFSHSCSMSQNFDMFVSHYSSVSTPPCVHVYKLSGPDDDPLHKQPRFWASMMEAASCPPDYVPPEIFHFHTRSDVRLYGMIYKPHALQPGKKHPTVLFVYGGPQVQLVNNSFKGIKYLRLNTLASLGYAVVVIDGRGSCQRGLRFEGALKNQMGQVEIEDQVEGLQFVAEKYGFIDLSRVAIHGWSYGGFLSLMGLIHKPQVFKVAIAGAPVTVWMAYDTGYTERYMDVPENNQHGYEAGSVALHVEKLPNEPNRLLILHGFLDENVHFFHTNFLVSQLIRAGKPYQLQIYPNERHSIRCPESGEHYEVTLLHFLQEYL

**Q.** How did the IC50 [1] turn out when CC(C)=CCn1c(N2CCC[C@@H](N)C2)nc2c1c(=O)n(Cc1nc3ccccc3s1)c(=O)n2C [(R)-43] was run?
**A.** Its IC50 is 36.2 nM.

**Q.** And the IC50 (Dipeptidyl peptidase 8)?
**A.** The IC50 was greater than 100 µM.

**Q.** And the IC50 (Dipeptidyl peptidase 9)?
**A.** The IC50 was greater than 100 µM.

**Q.** For CC(C)=CCn1c(N2CCC[C@H](N)C2)nc2c1c(=O)n(Cc1nc3ccccc3s1)c(=O)n2C [(S)-43], which IC50 [1] is on record?
**A.** Its IC50 is 36.9 nM.

**Q.** What about the IC50 (Dipeptidyl peptidase 8) of the same compound?
**A.** The IC50 was greater than 100 µM.

**Q.** And the IC50 (Dipeptidyl peptidase 9)?
**A.** The IC50 was greater than 100 µM.

**Q.** How did the IC50 [1] turn out when CC(C)=CCn1c(N2CCC[C@@H](N)C2)nc2c1c(=O)n(Cc1ccccc1C#N)c(=O)n2C [(R)-40] was run?
**A.** Its IC50 is 23.5 nM.

**Q.** What about the IC50 (Dipeptidyl peptidase 8) of the same compound?
**A.** Its IC50 is greater than 100 µM.

**Q.** What about the IC50 (Dipeptidyl peptidase 9) of the same compound?
**A.** Its IC50 is greater than 100 µM.

**Q.** Which results are given for CC(C)=CCn1c(N2CCC[C@H](N)C2)nc2c1c(=O)n(Cc1ccccc1C#N)c(=O)n2C [(S)-40]?
**A.** IC50 [1]: 108 nM; IC50 (Dipeptidyl peptidase 8): > 100 µM; IC50 (Dipeptidyl peptidase 9): > 100 µM
